This is an account of results in patent US9650395B2, “Antibacterial compounds and methods for use” (PTC Therapeutics, Inc., priority 2011, dated 2017).

Assay [1] deals with quinolone resistant E. coli LZ3111. Nature of the assay: Antibacterial activity, MIC, quinolone resistant E. coli LZ3111. The class given is cell-based, Escherichia coli. The settings on record: Escherichia coli, read-out: MIC, LZ3111. An excerpt:
The antibacterial activity from a microbroth dilution method may be presented as the minimum inhibitory concentration (MIC in […]). The MIC value is the lowest concentration of a drug which prevents macroscopically visible bacterial growth under test conditions.
Mutations in these regions are known to confer a high level resistance to the quinolone class of antibiotics.

Assay [2] has as its system Gram-positive Staphylococcus aureus (S. aureus) 29213. The experiment in a line: Antibacterial activity, microbroth dilution MIC, S. aureus 29213. In kind it is cell-based. The settings on record: Staphylococcus aureus, read-out: MIC, 29213. A general note: In broth dilution the organism is exposed to a series of concentrations in liquid medium.
Assay [3] concerns control Gram-negative E. coli 25922 strain. Nature of the assay: Antibacterial activity, microbroth dilution MIC, E. coli 25922. The settings on record: Escherichia coli, read-out: MIC, 25922. The class given is cell-based, Escherichia coli.
Assay [4] concerns super sensitive Gram-negative Escherichia coli (E. coli) BAS849. The experiment in a line: Antibacterial activity, microbroth dilution MIC, E. coli BAS849. The class given is cell-based. The settings on record: Escherichia coli, read-out: MIC, BAS849.
Setting [5] is: S. aureus 29213, microbroth dilution.
[6] abbreviates: E. coli 25922, microbroth dilution.
Where [7] appears, read: E. coli BAS849, microbroth dilution.

≈ marks a conversion by molar mass, not a printed value. Structures can show the parent of a compound that is named as a salt. Where two headings read alike, the source gives them in different places. Bounds are passed on as bounds.

One may read the MIC as the smallest concentration in the dilution series that meets the test's criterion for growth inhibition. For `CCc1cc(C(=O)O)c(=O)[nH]c1-c1ccc(N2C[C@H]3CCC[C@@H](NC)[C@H]3C2)cc1` [Cpd 195, 5-ethyl-6-{4-[(3aR,4R,7aS)-4-(methylamino)octahydro-2H-isoiridol-2-yl]phenyl}-2-oxo-1,2-dihydropyridine-3-carboxylic acid trifluoroacetate], the MIC fell in the range of 12.5 to 150 µg/mL in assay [1], 12.5 to 150 µg/mL in assay [2] (setting [5]), 3.5 to 12.5 µg/mL in assay [3] (setting [6]) and 1 to 3.5 µg/mL in assay [4].

In the case of `CCc1cc(C(=O)O)c(=O)[nH]c1-c1ccc(N2C[C@H]3CCC[C@@H](N(Cc4ccccc4)Cc4ccccc4)[C@H]3C2)cc1.O=C(O)C(F)(F)F` [Cpd 196, 6-{4-[(3aR,4R,7aS)-4-(dibenzylamino)octahydro-2H-isoindol-2-yl]phenyl}-5-ethyl-2-oxo-1,2-dihydropyridine-3-carboxylic acid trifluoroacetate], the MIC in assay [1], in assay [2] (setting [5]), in assay [3] (setting [6]) and in assay [4] was 12.5 to 150 µg/mL throughout.

Turning to `CCc1cc(C(=O)O)c(=O)[nH]c1-c1ccc(N2C[C@H]3CCC[C@@H](N)[C@H]3C2)cc1.O=C(O)C(F)(F)F` [Cpd 197, 6-{4-[(3aR,4R,7aS)-4-aminooctahydro-2H-isoindol-2-yl]phenyl}-5-ethyl-2-oxo-1,2-dihydropyridine-3-carboxylic acid trifluoroacetate], the minimal inhibitory concentration (MIC) in assay [1] was in the range of 12.5 to 150 µg/mL; in assay [2] (setting [5]), 12.5 to 150 µg/mL; in assay [3] (setting [6]), 12.5 to 150 µg/mL; in assay [4], 3.5 to 12.5 µg/mL.

With `CCc1cc(C(=O)O)c(=O)[nH]c1-c1ccc(N2C[C@H]3CC[C@@H](N(C)C)[C@H]3C2)cc1.Cl` [Cpd 198, 6-{4-[(3aR,4R,6aS)-4-(dimethylamino)hexahydrocyclopenta[c]pyrrol-2(1H)-yl]phenyl}-5-ethyl-2-oxo-1,2-dihydropyridine-3-carboxylic acid hydrochloride], the MIC in assay [1] is 12.5 to 150 µg/mL; in assay [2] (setting [5]), 12.5 to 150 µg/mL; in assay [3] (setting [6]), 3.5 to 12.5 µg/mL; in assay [4] (setting [7]), < 1 µg/mL.

Consider `CCc1cc(C(=O)O)c(=O)[nH]c1-c1ccc(N2C[C@H]3CC[C@@H](N(C)Cc4ccccc4)[C@H]3C2)cc1.Cl` [Cpd 199, 6-{4-[(3aR,4R,6aS)-4-[benzyl(methyl)amino]hexahydrocyclopenta[c]pyrrol-2(1H)-yl]phenyl}-5-ethyl-2-oxo-1,2-dihydropyridine-3-carboxylic acid hydrochloride], for which the MIC in assay [1] was 12.5 to 150 µg/mL; in assay [2] (setting [5]), 3.5 to 12.5 µg/mL; in assay [3] (setting [6]) it was 3.5 to 12.5 µg/mL; in assay [4] (setting [7]), < 1 µg/mL.

With `CCc1cc(C(=O)O)c(=O)[nH]c1-c1ccc(N2C[C@H]3CC[C@@H](NC)[C@H]3C2)cc1.Cl` [Cpd 200, 5-ethyl-6-{4-[(3aR,4R,6aS)-4-(methylamino)hexahydrocyclopenta[c]pyrrol-2(1H)-yl]phenyl}-2-oxo-1,2-dihydropyridine-3-carboxylic acid hydrochloride], the MIC fell in the range of 12.5 to 150 µg/mL in assay [1], 12.5 to 150 µg/mL in assay [2] (setting [5]), 3.5 to 12.5 µg/mL in assay [3] (setting [6]) and 1 to 3.5 µg/mL in assay [4] (setting [7]).

Turning to `CCc1cc(C(=O)O)c(=O)[nH]c1-c1ccc(N2C[C@H]3CC[C@@H](N(Cc4ccccc4)Cc4ccccc4)[C@H]3C2)cc1.O=C(O)C(F)(F)F` [Cpd 201, 6-{4-[(3aR,4R,6aS)-4-(dibenzylamino)hexahydrocyclopenta[c]pyrrol-2(1H)-yl]phenyl}-5-ethyl-2-oxo-1,2-dihydropyridine-3-carboxylic acid trifluoroacetate], the MIC in assay [1] is 12.5 to 150 µg/mL; in assay [2] (setting [5]), 12.5 to 150 µg/mL; in assay [3] (setting [6]), 12.5 to 150 µg/mL; in assay [4], 3.5 to 12.5 µg/mL.

Turning to `CCc1cc(C(=O)O)c(=O)[nH]c1-c1ccc(N2C[C@H]3CC[C@H](N)[C@H]3C2)cc1.O=C(O)C(F)(F)F` [Cpd 204, 6-{4-[(3aR,4S,6aS)-4-aminohexahydrocyclopenta[c]pyrrol-2(1H)-yl]phenyl}-5-ethyl-2-oxo-1,2-dihydropyridine-3-carboxylic acid trifluoroacetate], the MIC in assay [1] was 12.5 to 150 µg/mL; in assay [2] (setting [5]), 12.5 to 150 µg/mL; in assay [3] (setting [6]), 12.5 to 150 µg/mL; in assay [4], 1 to 3.5 µg/mL.

`CCc1cc(C(=O)O)c(=O)[nH]c1-c1ccc(N2C[C@H]3CCCC[C@@]3(CN(C)C)C2)cc1.O=C(O)C(F)(F)F` [Cpd 205, 6-(4-{(3aR,7aS)-3a-[(dimethylamino)methyl]octahydro-2H-isoindol-2-yl}phenyl)-5-ethyl-2-oxo-1,2-dihydropyridine-3-carboxylic acid trifluoroacetate]: the minimum inhibitory concentration (MIC) lay within 12.5 to 150 µg/mL in assay [1], 12.5 to 150 µg/mL in assay [2] (setting [5]), 12.5 to 150 µg/mL in assay [3] (setting [6]) and 1 to 3.5 µg/mL in assay [4].

`CCc1cc(C(=O)O)c(=O)[nH]c1-c1ccc(N2C[C@H]3CNC[C@H]3C2)cc1.Cl` [Cpd 207, 5-ethyl-6-{4-[(3aR,6aS)-hexahydropyrrolo[3,4-c]pyrrol-2(1H)-yl]phenyl}-2-oxo-1,2-dihydropyridine-3-carboxylic acid hydrochloride]: the MIC in assay [1] is 12.5 to 150 µg/mL; in assay [2] (setting [5]) it was 12.5 to 150 µg/mL; in assay [3] (setting [6]), 12.5 to 150 µg/mL; in assay [4] (setting [7]) it was 3.5 to 12.5 µg/mL.

Consider `CCc1cc(C(=O)O)c(=O)[nH]c1-c1ccc(N2CC3NC3C2)cc1` (centres unmarked) [Cpd 209, 6-[4-(3,6-diazabicyclo[3.1.0]hex-3-yl)phenyl]-5-ethyl-2-oxo-1,2-dihydropyridine-3-carboxylic acid], for which the MIC in assay [1] was in the range of 12.5 to 150 µg/mL (≈ 38.4 to 461 µM); in assay [2], 12.5 to 150 µg/mL (≈ 38.4 to 461 µM); in assay [3], 12.5 to 150 µg/mL (≈ 38.4 to 461 µM); in assay [4] (setting [7]), 3.5 to 12.5 µg/mL (≈ 10.8 to 38.4 µM).

For `CCc1cc(C(=O)O)c(=O)[nH]c1-c1ccc(N2C[C@H]3C[C@@H](NC)[C@H]3C2)cc1.Cl` [Cpd 210, 5-ethyl-6-{4-[(1S,5R,6R)-6-(methylamino)-3-azabicyclo[3.2.0]hept-3-yl]phenyl}-2-oxo-1,2-dihydropyridine-3-carboxylic acid hydrochloride], the MIC in assay [1] was in the range of 12.5 to 150 µg/mL; in assay [2] (setting [5]) it was 12.5 to 150 µg/mL; in assay [3] (setting [6]), 12.5 to 150 µg/mL; in assay [4] (setting [7]) it was 1 to 3.5 µg/mL.

Regarding `CCc1cc(C(=O)O)c(=O)[nH]c1-c1ccc(N2C[C@H]3C[C@@H](N)[C@H]3C2)cc1` [Cpd 211, 6-{4-[(1S,5R,6R)-6-amino-3-azabicyclo[3.2.0]hept-3-yl]phenyl}-5-ethyl-2-oxo-1,2-dihydropyridine-3-carboxylic acid], the minimum inhibitory concentration (MIC) is 12.5 to 150 µg/mL (≈ 35.4 to 424 µM) in assay [1], 12.5 to 150 µg/mL (≈ 35.4 to 424 µM) in assay [2] (setting [5]), 3.5 to 12.5 µg/mL (≈ 9.9 to 35.4 µM) in assay [3] (setting [6]) and < 1 µg/mL in assay [4] (setting [7]).

With `CCc1cc(C(=O)O)c(=O)[nH]c1-c1ccc(N2C[C@H]3C[C@H](N)[C@H]3C2)cc1.Cl` [Cpd 212, 6-{4-[(1S,5R,6S)-6-amino-3-azabicyclo[3.2.0]hept-3-yl]phenyl}-5-ethyl-2-oxo-1,2-dihydropyridine-3-carboxylic acid hydrochloride], the MIC was 12.5 to 150 µg/mL in assay [1], 12.5 to 150 µg/mL in assay [2] (setting [5]), 3.5 to 12.5 µg/mL in assay [3] (setting [6]) and < 1 µg/mL in assay [4] (setting [7]).

On to `CCc1cc(C(=O)O)c(=O)[nH]c1-c1ccc(N2CC3CCCNC3C2)cc1.Cl` (centres unmarked) [Cpd 213, 5-ethyl-6-[4-(octahydro-6H-pyrrolo[3,4-b]pyridin-6-yl)phenyl]-2-oxo-1,2-dihydropyridine-3-carboxylic acid hydrochloride], for which the minimal inhibitory concentration (MIC) in assay [1] lay in the range of 12.5 to 150 µg/mL; in assay [2] (setting [5]) it was 12.5 to 150 µg/mL; in assay [3] (setting [6]), 12.5 to 150 µg/mL; in assay [4] (setting [7]), 1 to 3.5 µg/mL.

On to `CCc1cc(C(=O)O)c(=O)[nH]c1-c1ccc(N2CC(N)C3(CC3)C2)cc1.O=C(O)C(F)(F)F` (centres unmarked) [Cpd 214, 6-[4-(7-amino-5-azaspiro[2.4]hept-5-yl)phenyl]-5-ethyl-2-oxo-1,2-dihydropyridine-3-carboxylic acid trifluoroacetate], for which the MIC in assay [1] fell in the range of 12.5 to 150 µg/mL; in assay [2] (setting [5]), 12.5 to 150 µg/mL; in assay [3] (setting [6]) it was 12.5 to 150 µg/mL; in assay [4], 1 to 3.5 µg/mL.

For `CCc1cc(C(=O)O)c(=O)[nH]c1-c1ccc(N2C[C@H]3C[C@@H](NC)C[C@H]3C2)cc1` [Cpd 215, 5-ethyl-6-{4-[(3aR,5r,6aS)-5-(methylamino)hexahydrocyclopenta[c]pyrrol-2(1H)-yl]phenyl}-2-oxo-1,2-dihydropyridine-3-carboxylic acid trifluoroacetate], the MIC in assay [1] was 12.5 to 150 µg/mL; in assay [2] (setting [5]), 12.5 to 150 µg/mL; in assay [3] (setting [6]), 3.5 to 12.5 µg/mL; in assay [4], 1 to 3.5 µg/mL.

As to `CCc1cc(C(=O)O)c(=O)[nH]c1-c1ccc(N2CCC(C3(N)CCC3)C2)cc1.O=C(O)C(F)(F)F` (centres unmarked) [Cpd 218, 6-{4-[3-(1-aminocyclobutyl)pyrrolidin-1-yl]phenyl}-5-ethyl-2-oxo-1,2-dihydropyridine-3-carboxylic acid trifluoroacetate], the MIC fell in the range of 12.5 to 150 µg/mL in assay [1], 12.5 to 150 µg/mL in assay [2] (setting [5]), 3.5 to 12.5 µg/mL in assay [3] (setting [6]) and 1 to 3.5 µg/mL in assay [4].

In the case of `CCc1cc(C(=O)O)c(=O)[nH]c1-c1ccc(N2C[C@@H]3CCC[C@]3(C(=O)O)C2)cc1.O=C(O)C(F)(F)F` [Cpd 220, (3aR,6aR)-2-[4-(5-carboxy-3-ethyl-6-oxo-1,6-dihydropyridin-2-yl)phenyl]hexahydrocyclopenta[c]pyrrole-3a(1H)-carboxylic acid trifluoroacetate], the MIC in assay [1] fell in the range of 12.5 to 150 µg/mL; in assay [2] (setting [5]) it was 12.5 to 150 µg/mL; in assay [3] (setting [6]), 12.5 to 150 µg/mL; in assay [4], 3.5 to 12.5 µg/mL.

With `CCc1cc(C(=O)O)c(=O)[nH]c1-c1ccc(N2CCC(N(C)C)C2)cc1F` (centres unmarked) [Cpd 221, 6-{4-[3-(dimethylamino)pyrrolidin-1-yl]-2-fluorophenyl}-5-ethyl-2-oxo-1,2-dihydropyridine-3-carboxylic acid], the MIC in assay [1] is 12.5 to 150 µg/mL (≈ 33.5 to 402 µM); in assay [2] (setting [5]), 12.5 to 150 µg/mL (≈ 33.5 to 402 µM); in assay [3] (setting [6]) it was 3.5 to 12.5 µg/mL (≈ 9.37 to 33.5 µM); in assay [4] (setting [7]), 1 to 3.5 µg/mL (≈ 2.68 to 9.37 µM).
